Reference: ChEMBL document CHEMBL4359918, “Discovery of tissue selective liver X receptor agonists for the treatment of atherosclerosis without causing hepatic lipogenesis” (Eur J Med Chem, 2019)
The source made the active and inactive calls.

Columns and labels:
[1] = system: PBMC; assay: Effect on LXR mRNA expression in C57BL/6 mouse PBMC at 10 uM incubated for 48 hrs by qPCR analysis; format: cell-based
[2] = system: Mus musculus; assay: Anti-atherosclerotic activity in high fat diet-induced C57BL/6 mouse model of hypercholesterolemia assessed as reduction in hepatic total cholesterol level at 10 to 40 mg/kg, po administered for 12 weeks; format: functional, organism-based
[3] = Selectivity index, ratio of compound effect for agonist activity at human LXRalpha to compound effect for agonist activity at […]
[4] = system: 3T3-L1; assay: Anti-adipogenic activity in mouse 3T3L1 preadipocytes assessed as decrease in triglyceride accumulation; format: functional, cell-based
[5] = system: RAW264.7; assay: Anti-atherosclerotic activity in mouse RAW264.7 cells assessed as inhibition of ox-LDL induced lipid accumulation at 10 uM incubated for 48 hrs by ORO staining based microscopic analysis; format: functional, cell-based
[6] = system: RAW264.7; assay: Effect on LXR mRNA expression in mouse RAW264.7 cells at 10 uM incubated for 48 hrs by qPCR analysis; format: cell-based; settings: raw264.7, 48 h
[7] = system: Mus musculus; assay: Anti-atherosclerotic activity in high fat diet-induced C57BL/6 mouse model of hypercholesterolemia assessed as reduction in ALT level at 10 to 40 mg/kg, po administered for 12 weeks; format: functional, organism-based
[8] = system: HepG2; assay: Effect on TG accumulation in human HepG2 cells at 10 uM incubated for 24 hrs; format: ADME, cell-based; settings: hepg2, 24 h
[9] = system: Mus musculus; assay: Anti-atherosclerotic activity in high fat diet-induced C57BL/6 mouse model of hypercholesterolemia assessed as increase in ABCG5 mRNA expression in liver at 10 to 40 mg/kg, po administered for 12 weeks by RT-qPCR analysis; format: functional, organism-based
[10] = system: RAW264.7; assay: Inhibition of macrophage foam cell formation in mouse RAW264.7 cells assessed as reduction in ox-LDL induced total cholesterol level at 10 uM measured after 48 hrs; format: functional, cell-based
[11] = system: Mus musculus; assay: Induction of hepatic steatosis in C57BL/6 mouse assessed as accumulation of serum triglyceride level at 50 mg/kg/day, ig administered for 7 days; format: organism-based; settings: in vivo, po, 168 h
[12] = system: Mus musculus; assay: Induction of hepatic steatosis in C57BL/6 mouse assessed as effect on serum LDL-C at 50 mg/kg/day, ig administered for 7 days; format: organism-based; settings: in vivo, po, 168 h
[13] = Agonist activity at LXR in mouse RAW264.7 cells assessed as increase in sREBP-1c mRNA expression at 10 uM incubated for 48 hrs by qPCR analysis; format: cell-based; settings: raw264.7, 48 h
[14] = system: Mus musculus; assay: Anti-atherosclerotic activity in high fat diet-induced C57BL/6 mouse model of hypercholesterolemia assessed as increase in ABCG8 mRNA expression in liver at 10 to 40 mg/kg, po administered for 12 weeks by RT-qPCR analysis; format: functional, organism-based
[15] = system: Mus musculus; assay: Anti-atherosclerotic activity in high fat diet-induced C57BL/6 mouse model of hypercholesterolemia assessed as decrease in SCD1 mRNA expression in liver at 10 to 40 mg/kg, po administered for 12 weeks by RT-qPCR analysis; format: functional, organism-based
[16] = Agonist activity at LXR in C57BL/6 mouse PBMC assessed as increase in sREBP-1c mRNA expression at 10 uM incubated for 48 hrs by qPCR analysis
[17] = Agonist activity at LXR in mouse 3T3L1 preadipocytes assessed as increase in ABCA1 mRNA expression at 10 uM by qPCR analysis; format: cell-based
[18] = system: Mus musculus; assay: Anti-atherosclerotic activity in high fat diet-induced C57BL/6 mouse model of hypercholesterolemia assessed as increase in ABCA1 mRNA expression in small intestine at 10 to 40 mg/kg, po administered for 12 weeks by RT-qPCR analysis; format: functional, organism-based
[19] = target: T1, Oxysterols receptor LXR-beta (Rattus norvegicus) (UniProt Q62755); assay: Agonist activity at rat LXRbeta transfected in HEK293T cells at 10 uM incubated for 20 hrs by luciferase reporter gene assay relative to control; format: cell-based
T1 sequence (whole entry): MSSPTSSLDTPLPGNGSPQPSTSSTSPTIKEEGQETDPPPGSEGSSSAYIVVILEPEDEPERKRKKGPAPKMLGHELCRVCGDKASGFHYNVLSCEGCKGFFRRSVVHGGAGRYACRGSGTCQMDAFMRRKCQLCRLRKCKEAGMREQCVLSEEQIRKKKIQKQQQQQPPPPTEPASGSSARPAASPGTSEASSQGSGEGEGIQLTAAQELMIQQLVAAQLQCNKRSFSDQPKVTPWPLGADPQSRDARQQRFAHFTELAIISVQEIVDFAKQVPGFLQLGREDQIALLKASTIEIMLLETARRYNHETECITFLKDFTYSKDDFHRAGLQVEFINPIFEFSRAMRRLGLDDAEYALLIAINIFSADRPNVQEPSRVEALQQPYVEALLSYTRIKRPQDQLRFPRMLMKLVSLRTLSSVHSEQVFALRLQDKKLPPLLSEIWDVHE

[20] = system: HEK-293T; assay: Cytotoxicity against HEK293T cells assessed as reduction in cell viability at […] incubated for 24 hrs by MTT assay; format: cell-based; settings: human
[21] = system: HepG2; assay: Lipid lowering activity in human HepG2 cells assessed as decrease in OA-induced TG accumulation at 10 uM incubated for 24 hrs; format: functional, cell-based
[22] = system: Mus musculus; assay: Anti-atherosclerotic activity in high fat diet-induced C57BL/6 mouse model of hypercholesterolemia assessed as reduction in liver weight at 10 to 40 mg/kg, po administered for 12 weeks by H and E staining-based assay; format: functional, organism-based
[23] = system: Mus musculus; assay: Anti-atherosclerotic activity in high fat diet-induced C57BL/6 mouse model of hypercholesterolemia assessed as decrease in sREBP-1c mRNA expression in liver at 10 to 40 mg/kg, po administered for 12 weeks by RT-qPCR analysis; format: functional, organism-based
[24] = system: Mus musculus; assay: Anti-atherosclerotic activity in high fat diet-induced C57BL/6 mouse model of hypercholesterolemia assessed as increase in ABCG8 mRNA expression in ileum at 10 to 40 mg/kg, po administered for 12 weeks by RT-qPCR analysis; format: functional, organism-based
[25] = system: Mus musculus; assay: Anti-atherosclerotic activity in high fat diet-induced C57BL/6 mouse model of hypercholesterolemia assessed as reduction in liver fat administered orally for 12 weeks by ORO staining based microscopic analysis; format: functional, organism-based
[26] = system: 3T3-L1; assay: Cytotoxicity against mouse 3T3L1 preadipocytes assessed as reduction in cell viability at 2 to 50 uM incubated for 24 hrs by MTT assay; format: cell-based; settings: 3t3-l1, 24 h
[27] = system: PBMC; assay: Anti-atherosclerotic activity in C57BL/6 mouse PBMC assessed as inhibition of ox-LDL induced lipid accumulation at 10 uM incubated for 48 hrs by ORO staining based microscopic analysis; format: functional, cell-based
[28] = system: Mus musculus; assay: Anti-atherosclerotic activity in high fat diet-induced C57BL/6 mouse model of hypercholesterolemia assessed as reduction in serum total cholesterol level at 10 to 40 mg/kg, po administered for 12 weeks; format: functional, organism-based
[29] = target: T2, LXRalpha (Oxysterols receptor LXR-alpha) (Homo sapiens, UniProt Q13133); assay: Agonist activity at human LXRalpha transfected in HEK293T cells at 10 uM incubated for 20 hrs by luciferase reporter gene assay relative to control; format: cell-based; settings: HEK293T cells transfected with human LXRalpha, read-out: FC
T2 sequence (Q13133 whole entry): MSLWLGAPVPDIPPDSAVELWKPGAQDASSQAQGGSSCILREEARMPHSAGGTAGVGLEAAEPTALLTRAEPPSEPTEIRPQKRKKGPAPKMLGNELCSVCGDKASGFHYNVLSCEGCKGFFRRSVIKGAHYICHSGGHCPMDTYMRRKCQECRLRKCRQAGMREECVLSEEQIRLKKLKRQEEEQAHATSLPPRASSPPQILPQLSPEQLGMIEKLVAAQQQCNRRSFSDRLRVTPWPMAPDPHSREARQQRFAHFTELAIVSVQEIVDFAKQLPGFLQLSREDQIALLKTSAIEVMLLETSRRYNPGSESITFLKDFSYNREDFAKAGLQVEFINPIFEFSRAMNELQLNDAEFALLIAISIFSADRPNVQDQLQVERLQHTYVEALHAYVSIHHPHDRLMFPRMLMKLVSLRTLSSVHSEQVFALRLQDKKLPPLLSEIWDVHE

[30] = system: RAW264.7; assay: Agonist activity at LXR in mouse RAW264.7 cells assessed as increase in ABCA1 mRNA expression at 10 uM incubated for 48 hrs by qPCR analysis; format: cell-based
[31] = system: Mus musculus; assay: Anti-atherosclerotic activity in high fat diet-induced C57BL/6 mouse model of hypercholesterolemia assessed as increase in CYP7A1 mRNA expression in liver at 10 to 40 mg/kg, po administered for 12 weeks by RT-qPCR analysis; format: functional, organism-based
[32] = system: RAW264.7; assay: Cytotoxicity against mouse RAW264.7 cells assessed as reduction in cell viability at 2 to 50 µM incubated for 24 hrs by MTT assay; format: cell-based; settings: raw264.7, 24 h
[33] = target: Liver X receptor (Homo sapiens) (UniProt Q13133+P55055); assay: Agonist activity at LXR in human HepG2 cells assessed as increase in ABCA1 mRNA expression at 10 uM incubated for 24 hrs by qPCR analysis; format: cell-based
Sequence of Liver X receptor (Homo sapiens) (P55055 whole entry, looked up, one chain of several): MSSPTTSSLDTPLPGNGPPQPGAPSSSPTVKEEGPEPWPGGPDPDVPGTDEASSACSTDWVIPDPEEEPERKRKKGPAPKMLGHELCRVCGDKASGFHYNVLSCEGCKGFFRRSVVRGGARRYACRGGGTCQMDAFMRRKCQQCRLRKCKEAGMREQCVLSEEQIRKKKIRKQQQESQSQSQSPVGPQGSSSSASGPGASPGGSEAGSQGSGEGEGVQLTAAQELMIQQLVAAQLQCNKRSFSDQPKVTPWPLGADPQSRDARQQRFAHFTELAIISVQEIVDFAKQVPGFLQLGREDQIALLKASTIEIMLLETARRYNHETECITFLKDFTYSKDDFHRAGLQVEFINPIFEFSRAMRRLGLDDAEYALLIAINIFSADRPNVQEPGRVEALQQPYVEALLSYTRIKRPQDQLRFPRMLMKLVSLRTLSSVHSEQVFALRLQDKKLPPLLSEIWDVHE

[34] = system: Mus musculus; assay: Anti-atherosclerotic activity in high fat diet-induced C57BL/6 mouse model of hypercholesterolemia assessed as reduction in hepatic triglyceride level at 10 to 40 mg/kg, po administered for 12 weeks; format: functional, organism-based
[35] = system: HepG2; assay: Cytotoxicity against human HepG2 cells assessed as reduction in cell viability at 2 to 50 uM incubated for 24 hrs by MTT assay; format: cell-based; settings: hepg2, 24 h
[36] = system: Mus musculus; assay: Anti-atherosclerotic activity in high fat diet-induced C57BL/6 mouse model of hypercholesterolemia assessed as increase in ABCG1 mRNA expression in small intestine at 10 to 40 mg/kg, po administered for 12 weeks by RT-qPCR analysis; format: functional, organism-based
[37] = system: Mus musculus; assay: Anti-atherosclerotic activity in high fat diet-induced C57BL/6 mouse model of hypercholesterolemia assessed as decrease in ACC mRNA expression in liver at 10 to 40 mg/kg, po administered for 12 weeks by RT-qPCR analysis; format: functional, organism-based
[38] = species: Mus musculus; assay: Agonist activity at LXR in C57BL/6 mouse PBMC assessed as increase in ABCA1 mRNA expression at 10 uM incubated for 48 hrs by qPCR analysis
[39] = system: 3T3-L1; assay: Anti-adipogenic activity in mouse 3T3L1 preadipocytes assessed as decrease in lipid accumulation by Oil Red O staining-based microscopic analysis; format: functional, cell-based
[40] = system: Mus musculus; assay: Anti-atherosclerotic activity in high fat diet-induced C57BL/6 mouse model of hypercholesterolemia assessed as increase in ABCG5 mRNA expression in ileum at 10 to 40 mg/kg, po administered for 12 weeks by RT-qPCR analysis; format: functional, organism-based
[41] = target: T3, Oxysterols receptor LXR-alpha (Homo sapiens) (UniProt Q13133); assay: Agonist activity at human LXRalpha transfected in HEK293T cells at 10 uM incubated for 20 hrs in presence of LXR antagonist SR9243 by luciferase reporter gene assay relative to control; format: cell-based
T3 sequence (whole entry): T2 sequence (Q13133 whole entry)

[42] = Agonist activity at LXR in mouse 3T3L1 preadipocytes assessed as increase in sREBP-1c mRNA expression at 10 uM by qPCR analysis; format: cell-based

CC(C)C(=O)CC[C@@H](C)[C@H]1CC[C@H]2[C@@H]3C[C@H](O)[C@H]4C[C@H](O)CC[C@]4(C)[C@H]3CC[C@]12C
active: Activity [2] | inhibition [5] | Activity [7] | Activity [9] | inhibition [10] | Activity [14] | Activity [15] | Activity [18] | Activity [21] | Activity [22] | Activity [23] | Activity [24] | Activity [25] Dose-dependent effect | inhibition [27] | Activity [28] | Activity [30] | Activity [31] | Activity [33] | Activity [34] | Activity [36] | Activity [37] | Activity [38] | Activity [40]
Active: Activity [16] | Activity [17]
4.27: fold change (FC) [19] | fold induction at 20 h, 10 µM [29]
1: Ratio [3]
inactive: Activity [4] | Activity [39] | Activity [41]
Non-Toxic: Activity [1] | Activity [6] | Activity [8] | Activity [11] | Activity [12] | Activity [20] | Activity [26] | Activity [32] | Activity [35]
Not Active: Activity [13]

O=C(O)Cc1cccc(OCCCN(Cc2cccc(C(F)(F)F)c2Cl)CC(c2ccccc2)c2ccccc2)c1
2.19: fold induction at 20 h, 10 µM [29]
2.42: fold change (FC) [19]
Active: Activity [42] | Activity [17]
Toxic: Activity [8]
inactive: Activity [21]
Not Active: Activity [13] | Activity [16]
1.11: Ratio [3]
active: Activity [33] | Activity [38]
